Like-named read-outs stand apart in the source and are kept apart here.
Legend:
[1] = test system: MDA-MB-231 breast cancer cells; test: Proliferation inhibitory activity assay against MDA-MB-231 breast cancer cells; type: cell-based; conditions: Homo sapiens, 72 hours, CellTiter Glo, relative IC50
Method in brief: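 Cells grown in L-15 with 10% FBS at 37 °C, 0% CO2, then exposed next day to compounds at 9 concentrations (DMSO vehicle) for 72 h. Viability read by CellTiter Glo luminescence; relative IC50 from dose-response curve fit.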

[2] = molecular target: T1, CDK12 (Homo sapiens, UniProt Q9NYV4); test: Cellular CDK12 inhibitory activity assay (Ser2 phosphorylation of RNA polymerase II subunit B1 CTD in MDA-MB-231 cells); type: cell-based; design: using MDA-MB-231 breast cancer cells; endogenous in cells; host or cells: MDA-MB-231; conditions: MDA-MB-231 cells, 6 hours treatment; read-out: pRpbl CTD S2 IC50
T1 sequence (Q9NYV4 whole entry, species assumed): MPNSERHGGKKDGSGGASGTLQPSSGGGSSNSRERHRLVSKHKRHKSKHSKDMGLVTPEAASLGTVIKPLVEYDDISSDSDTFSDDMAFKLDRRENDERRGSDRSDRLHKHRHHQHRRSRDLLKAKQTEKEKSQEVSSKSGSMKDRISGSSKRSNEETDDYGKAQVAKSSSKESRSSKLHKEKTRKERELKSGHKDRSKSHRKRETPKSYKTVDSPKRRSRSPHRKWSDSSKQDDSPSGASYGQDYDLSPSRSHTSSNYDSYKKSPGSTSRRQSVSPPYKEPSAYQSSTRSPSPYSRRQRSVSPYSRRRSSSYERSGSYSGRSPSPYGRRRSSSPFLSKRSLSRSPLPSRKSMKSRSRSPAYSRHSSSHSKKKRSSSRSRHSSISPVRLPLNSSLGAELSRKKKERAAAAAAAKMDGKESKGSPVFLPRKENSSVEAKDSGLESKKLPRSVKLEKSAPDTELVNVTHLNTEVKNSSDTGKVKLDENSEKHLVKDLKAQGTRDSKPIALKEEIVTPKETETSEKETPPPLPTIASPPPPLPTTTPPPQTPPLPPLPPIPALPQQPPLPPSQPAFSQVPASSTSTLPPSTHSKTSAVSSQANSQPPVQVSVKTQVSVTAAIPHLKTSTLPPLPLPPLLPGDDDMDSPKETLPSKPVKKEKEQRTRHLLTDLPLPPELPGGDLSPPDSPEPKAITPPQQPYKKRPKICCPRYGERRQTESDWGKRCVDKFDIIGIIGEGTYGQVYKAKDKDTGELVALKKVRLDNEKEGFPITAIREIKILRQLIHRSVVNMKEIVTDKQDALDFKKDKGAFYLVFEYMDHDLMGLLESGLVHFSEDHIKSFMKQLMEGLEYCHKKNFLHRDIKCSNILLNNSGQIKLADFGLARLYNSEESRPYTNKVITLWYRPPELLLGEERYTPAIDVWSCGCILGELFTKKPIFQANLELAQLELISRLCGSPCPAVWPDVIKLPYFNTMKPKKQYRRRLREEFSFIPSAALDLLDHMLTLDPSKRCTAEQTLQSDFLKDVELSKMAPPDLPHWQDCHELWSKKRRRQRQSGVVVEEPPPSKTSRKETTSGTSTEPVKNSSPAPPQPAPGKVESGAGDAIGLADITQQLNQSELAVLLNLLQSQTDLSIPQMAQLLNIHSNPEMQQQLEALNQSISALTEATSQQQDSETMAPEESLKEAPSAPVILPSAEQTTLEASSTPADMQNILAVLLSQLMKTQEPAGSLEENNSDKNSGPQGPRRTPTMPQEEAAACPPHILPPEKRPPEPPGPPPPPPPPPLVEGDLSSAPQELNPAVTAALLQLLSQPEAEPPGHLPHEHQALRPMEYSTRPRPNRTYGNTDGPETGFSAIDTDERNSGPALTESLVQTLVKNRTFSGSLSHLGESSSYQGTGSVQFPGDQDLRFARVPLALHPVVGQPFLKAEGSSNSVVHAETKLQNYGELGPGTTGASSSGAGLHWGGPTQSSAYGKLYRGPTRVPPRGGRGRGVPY
T1 sequence (O75909 whole entry partner, species assumed): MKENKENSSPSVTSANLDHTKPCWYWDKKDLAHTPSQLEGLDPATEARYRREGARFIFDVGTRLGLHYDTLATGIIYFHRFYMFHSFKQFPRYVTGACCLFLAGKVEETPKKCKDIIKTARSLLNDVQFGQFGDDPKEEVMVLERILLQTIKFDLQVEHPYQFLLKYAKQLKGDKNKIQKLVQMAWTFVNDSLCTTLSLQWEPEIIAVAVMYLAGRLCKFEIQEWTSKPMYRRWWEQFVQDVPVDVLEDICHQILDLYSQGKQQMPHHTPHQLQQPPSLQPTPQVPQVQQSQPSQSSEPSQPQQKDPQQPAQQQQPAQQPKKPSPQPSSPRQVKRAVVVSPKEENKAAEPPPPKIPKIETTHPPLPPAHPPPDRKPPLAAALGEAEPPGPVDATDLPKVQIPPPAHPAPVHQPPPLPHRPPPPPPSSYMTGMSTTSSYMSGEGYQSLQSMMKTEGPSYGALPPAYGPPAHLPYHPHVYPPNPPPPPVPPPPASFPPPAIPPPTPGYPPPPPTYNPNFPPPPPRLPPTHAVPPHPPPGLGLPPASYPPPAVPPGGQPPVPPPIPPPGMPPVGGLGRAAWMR
Method in brief: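 MDA-MB-231 cells in L-15 with 10 % FBS were treated with compound at 9 concentrations for 6 h at 37 °C, 0 % CO2. In-Cell Western read phospho-Ser2 and total RNA polymerase II CTD on a Li-COR Odyssey; IC50 from 4-parameter dose-response fit.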

[3] = molecular target: T1, CDK12; test: CDK12 kinase inhibitory activity assay (33P-ATP filter binding); type: biochemical; conditions: kinase reaction 120 minutes, 33P-gamma-ATP; read-out: CDK12 IC50
Method in brief: (§1)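 Radiometric filter-binding read-out: after 20 min compound–enzyme/substrate pre-incubation across 9 concentrations, reaction started with ^33P-γ-ATP and run 120 min at room temperature. Filter-bound ^33P-substrate measured after 0.75 % phosphoric acid washes; remaining activity versus DMSO gives IC50.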

[4] = molecular target: CDK13 (Homo sapiens, UniProt Q14004); test: CDK13 kinase inhibitory activity assay (33P-ATP filter binding); type: biochemical
Sequence of CDK13 (Q14004 whole entry, species assumed): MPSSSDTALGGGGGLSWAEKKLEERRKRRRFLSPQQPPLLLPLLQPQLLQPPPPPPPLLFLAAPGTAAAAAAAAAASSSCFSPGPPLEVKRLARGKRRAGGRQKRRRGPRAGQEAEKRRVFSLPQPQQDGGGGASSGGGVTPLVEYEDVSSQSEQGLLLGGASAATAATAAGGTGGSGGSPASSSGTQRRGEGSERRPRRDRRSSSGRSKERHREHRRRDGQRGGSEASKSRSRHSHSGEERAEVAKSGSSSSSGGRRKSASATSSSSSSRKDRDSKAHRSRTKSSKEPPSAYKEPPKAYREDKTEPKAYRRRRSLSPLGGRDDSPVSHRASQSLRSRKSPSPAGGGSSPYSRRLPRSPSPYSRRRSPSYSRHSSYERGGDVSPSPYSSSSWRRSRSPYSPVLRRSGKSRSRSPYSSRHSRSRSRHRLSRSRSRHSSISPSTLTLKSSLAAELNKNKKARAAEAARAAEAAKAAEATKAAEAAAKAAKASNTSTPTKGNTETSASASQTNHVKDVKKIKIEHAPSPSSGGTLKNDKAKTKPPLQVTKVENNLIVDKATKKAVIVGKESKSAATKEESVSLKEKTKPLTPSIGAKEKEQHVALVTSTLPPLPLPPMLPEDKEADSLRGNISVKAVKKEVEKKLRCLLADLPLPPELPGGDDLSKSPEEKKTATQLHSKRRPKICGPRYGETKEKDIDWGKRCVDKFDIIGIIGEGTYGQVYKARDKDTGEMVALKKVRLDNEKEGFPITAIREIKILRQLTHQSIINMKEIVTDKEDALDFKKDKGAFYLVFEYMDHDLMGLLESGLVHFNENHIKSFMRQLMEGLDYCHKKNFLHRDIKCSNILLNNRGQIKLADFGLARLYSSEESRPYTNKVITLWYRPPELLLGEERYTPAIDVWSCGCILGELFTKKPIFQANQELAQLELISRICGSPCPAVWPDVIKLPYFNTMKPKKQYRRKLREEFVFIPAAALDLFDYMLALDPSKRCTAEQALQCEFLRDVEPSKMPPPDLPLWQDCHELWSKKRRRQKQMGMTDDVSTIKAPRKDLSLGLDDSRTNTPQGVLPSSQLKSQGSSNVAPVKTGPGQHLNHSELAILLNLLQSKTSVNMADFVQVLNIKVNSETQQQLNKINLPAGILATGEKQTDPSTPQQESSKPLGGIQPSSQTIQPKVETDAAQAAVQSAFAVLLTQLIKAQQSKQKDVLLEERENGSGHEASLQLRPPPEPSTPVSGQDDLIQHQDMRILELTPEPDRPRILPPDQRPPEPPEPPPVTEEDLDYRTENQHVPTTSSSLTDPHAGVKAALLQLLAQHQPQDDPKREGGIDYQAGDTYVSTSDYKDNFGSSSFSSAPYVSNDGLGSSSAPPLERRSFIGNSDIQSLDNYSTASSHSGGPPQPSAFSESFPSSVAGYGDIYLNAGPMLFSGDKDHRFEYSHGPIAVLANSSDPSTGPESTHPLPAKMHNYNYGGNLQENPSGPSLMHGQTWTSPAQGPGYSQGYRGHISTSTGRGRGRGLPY
Sequence of CDK13 (O75909 whole entry partner, species assumed): as the sequence (O75909 whole entry partner, species assumed) above
Method in brief: as §1

[5] = kinase reaction 120 minutes, 33P-gamma-ATP, read-out: CDK13 IC50

| IC50 [1] | IC50 [2] | IC50 [3] | IC50 [4, 5] | IC50 [4] | SMILES |
| --- | --- | --- | --- | --- | --- |
| 50 to 500 nM | 300 to 3000 nM | < 100 nM | < 100 nM |  | FC(F)(F)c1cnc2c(NCc3nc4ccncc4[nH]3)cc(N3CCOCC3)nn12 [Example 74, N-((3H-imidazo[4,5-c]pyridin-2-yl)methyl)-6-morpholino-3-(trifluoromethyl)imidazo[1,2-b]pyridazin-8-amine] |
| 50 to 500 nM | 300 to 3000 nM | < 100 nM | < 100 nM |  | FC(F)(F)c1ccc2[nH]c(CNc3cc(N4CCOCC4)nn4c(C(F)(F)F)cnc34)nc2c1 [Example 78, 6-morpholino-3-(trifluoromethyl)-N-((5-(trifluoromethyl)-1H-benzo[d]imidazol-2-yl)methyl)imidazo[1,2-b]pyridazin-8-amine] |
| ≤ 50 nM | < 300 nM | < 100 nM | < 100 nM |  | Cc1cc2[nH]c(CNc3cc(N4CCOCC4)nn4c(C(F)(F)F)cnc34)nc2cc1Cl [Example 79, N-((5-chloro-6-methyl-1H-benzo[d]imidazol-2-yl)methyl)-6-morpholino-3-(trifluoromethyl)imidazo[1,2-b]pyridazin-8-amine] |
| ≤ 50 nM | < 300 nM | < 100 nM | < 100 nM |  | Cc1cc2[nH]c(CNc3cc(N4CCOCC4)nn4c(C(F)(F)F)cnc34)nc2cc1C(F)(F)F [Example 80, N-((6-methyl-5-(trifluoromethyl)-1H-benzo[d]imidazol-2-yl)methyl)-6-morpholino-3-(trifluoromethyl)imidazo[1,2-b]pyridazin-8-amine] |
| 50 to 500 nM | 300 to 3000 nM | > 500 nM | 100 to 500 nM |  | FC(F)(F)c1cc2nc(CNc3cc(N4CCOCC4)nn4c(C(F)(F)F)cnc34)[nH]c2cc1C(F)(F)F [Example 81, N-((5,6-bis(trifluoromethyl)-1H-benzo[d]imidazol-2-yl)methyl)-6-morpholino-3-(trifluoromethyl)imidazo[1,2-b]pyridazin-8-amine] |
| 50 to 500 nM | 300 to 3000 nM | < 100 nM |  | < 100 nM | FC(F)(F)c1cnc2c(NCc3cn4ccccc4n3)cc(N3CCOCC3)nn12 [Example 82, N-(imidazo[1,2-a]pyridin-2-ylmethyl)-6-morpholino-3-(trifluoromethyl)imidazo[1,2-b]pyridazin-8-amine] |
| 50 to 500 nM | 300 to 3000 nM | < 100 nM |  | < 100 nM | FC(F)(F)c1cnc2c(NCc3cn4cccnc4n3)cc(N3CCOCC3)nn12 [Example 83, N-(imidazo[1,2-a]pyrimidin-2-ylmethyl)-6-morpholino-3-(trifluoromethyl)imidazo[1,2-b]pyridazin-8-amine] |
| 50 to 500 nM | 300 to 3000 nM | < 100 nM |  | < 100 nM | FC(F)(F)c1cnc2c(NCc3cc4cccnc4[nH]3)cc(N3CCOCC3)nn12 [Example 84, N-((1H-pyrrolo[2,3-b]pyridin-2-yl)methyl)-6-morpholino-3-(trifluoromethyl)imidazo[1,2-b]pyridazin-8-amine] |
| > 500 nM | > 3000 nM | < 100 nM |  | < 100 nM | FC(F)(F)c1cnc2c(NCc3cn4ncccc4n3)cc(N3CCOCC3)nn12 [Example 85, N-(imidazo[1,2-b]pyridazin-2-ylmethyl)-6-morpholino-3-(trifluoromethyl)imidazo[1,2-b]pyridazin-8-amine] |
| > 500 nM | 300 to 3000 nM | < 100 nM | < 100 nM |  | FC(F)(F)c1cnc2c(NCc3cc4ccccn4n3)cc(N3CCOCC3)nn12 [Example 86, 6-morpholino-N-(pyrazolo[1,5-a]pyridin-2-ylmethyl)-3-(trifluoromethyl)imidazo [1,2-b]pyridazin-8-amine] |
| 50 to 500 nM | 300 to 3000 nM | < 100 nM |  | < 100 nM | FC(F)(F)c1cnc2c(NCc3cc4ncccc4[nH]3)cc(N3CCOCC3)nn12 [Example 87, N-((1H-pyrrolo[3,2-b]pyridin-2-yl)methyl)-6-morpholino-3-(trifluoromethyl)imidazo[1,2-b]pyridazin-8-amine] |
| 50 to 500 nM | 300 to 3000 nM | < 100 nM |  | < 100 nM | Cc1cc(C)n2cc(CNc3cc(N4CCOCC4)nn4c(C(F)(F)F)cnc34)nc2n1 [Example 88, N-((5,7-dimethylimidazo[1,2-a]pyrimidin-2-yl)methyl)-6-morpholino-3-(trifluoromethyl)imidazo[1,2-b]pyridazin-8-amine] |
| > 500 nM | > 3000 nM | < 100 nM |  | < 100 nM | FC(F)(F)c1cnc2c(NCc3cc4ncccn4n3)cc(N3CCOCC3)nn12 [Example 89, 6-morpholino-N-(pyrazolo[1,5-a]pyrimidin-2-ylmethyl)-3-(trifluoromethyl)imidazo[1,2-b]pyridazin-8-amine] |
| 50 to 500 nM | 300 to 3000 nM | > 500 nM | > 500 nM |  | FC(F)(F)c1cnc2c(NCc3nc4cc(Cl)c(Cl)cc4o3)cc(N3CCOCC3)nn12 [Example 91, N-((5,6-dichlorobenzo[d]oxazol-2-yl)methyl)-6-morpholino-3-(trifluoromethyl)imidazo[1,2-b]pyridazin-8-amine] |
| 50 to 500 nM | 300 to 3000 nM | > 500 nM | > 500 nM |  | FC(F)(F)c1cnc2c(NCc3nc4cc(Cl)c(Cl)cc4s3)cc(N3CCOCC3)nn12 [Example 93, N-((5,6-dichlorobenzo[d]thiazol-2-yl)methyl)-6-morpholino-3-(trifluoromethyl)imidazo[1,2-b]pyridazin-8-amine] |

| SMILES | IC50 [1] | IC50 [2] | IC50 [3] | IC50 [4, 5] | IC50 [4] |
| --- | --- | --- | --- | --- | --- |
| NC(=O)N1CCN(c2cc(NCc3nc4ccc(F)c(F)c4[nH]3)c3ncc(C(F)(F)F)n3n2)CC1 [Example 92, 4-(8-(((6,7-difluoro-1H-benzo[d]imidazol-2-yl)methyl)amino)-3-(trifluoromethyl)imidazo[1,2-b]pyridazin-6-yl)piperazine-1-carboxamide] | 50 to 500 nM | 300 to 3000 nM | < 100 nM |  | < 100 nM |
| FC(F)(F)c1cnc2c(NCc3nc4cc(Cl)c(Cl)cc4[nH]3)cc(N3CC4CCC(C3)N4)nn12 [Example 94, 6-(3,8-diazabicyclo[3.2.1]octan-3-yl)-N-((5,6-dichloro-1H-benzo[d]imidazol-2-yl)methyl)-3-(trifluoromethyl)imidazo[1,2-b]pyridazin-8-amine] | ≤ 50 nM | < 300 nM | < 100 nM | < 100 nM |  |
| FC(F)(F)c1cnc2c(NCc3nc4cc(Cl)c(Cl)cc4[nH]3)cc(N3C4CCC3CNC4)nn12 [Example 95, 6-(3,8-diazabicyclo[3.2.1]octan-8-yl)-N-((5,6-dichloro-1H-benzo[d]imidazol-2-yl)methyl)-3-(trifluoromethyl)imidazo[1,2-b]pyridazin-8-amine] | ≤ 50 nM | < 300 nM | < 100 nM | < 100 nM |  |
| CN1CC2CCC(C1)N2c1cc(NCc2nc3cc(Cl)c(Cl)cc3[nH]2)c2ncc(C(F)(F)F)n2n1 [Example 96, N-((5,6-dichloro-1H-benzo[d]imidazol-2-yl)methyl)-6-(3-methyl-3,8-diazabicyclo[3.2.1]octan-8-yl)-3-(trifluoromethyl)imidazo[1,2-b]pyridazin-8-amine] | ≤ 50 nM | < 300 nM | 100 to 500 nM | < 100 nM |  |
| FC(F)(F)c1cnc2c(NCc3nc4cc(Cl)c(Cl)cc4[nH]3)cc(N3CC4CC(C3)N4)nn12 [Example 97, 6-(3,6-diazabicyclo[3.1.1]heptan-3-yl)-N-((5,6-dichloro-1H-benzo[d]imidazol-2-yl)methyl)-3-(trifluoromethyl)imidazo[1,2-b]pyridazin-8-amine] | ≤ 50 nM | < 300 nM | < 100 nM | < 100 nM |  |
| CN1C2CC1CN(c1cc(NCc3nc4cc(Cl)c(Cl)cc4[nH]3)c3ncc(C(F)(F)F)n3n1)C2 [Example 98, N-((5,6-dichloro-1H-benzo[d]imidazol-2-yl)methyl)-6-(6-methyl-3,6-diazabicyclo[3.1.1]heptan-3-yl)-3-(trifluoromethyl)imidazo[1,2-b]pyridazin-8-amine] | ≤ 50 nM | < 300 nM | < 100 nM | < 100 nM |  |
| FC(F)(F)c1cnc2c(NCc3nc4cc(Cl)c(Cl)cc4[nH]3)cc(N3C4CNCC3C4)nn12 [Example 99, 6-(3,6-diazabicyclo[3.1.1]heptan-6-yl)-N-((5,6-dichloro-1H-benzo[d]imidazol-2-yl)methyl)-3-(trifluoromethyl)imidazo[1,2-b]pyridazin-8-amine] | ≤ 50 nM | < 300 nM | 100 to 500 nM | 100 to 500 nM |  |
| CN1CC2CC(C1)N2c1cc(NCc2nc3cc(Cl)c(Cl)cc3[nH]2)c2ncc(C(F)(F)F)n2n1 [Example 100, N-((5,6-dichloro-1H-benzo[d]imidazol-2-yl)methyl)-6-(3-methyl-3,6-diazabicyclo[3.1.1]heptan-6-yl)-3-(trifluoromethyl)imidazo[1,2-b]pyridazin-8-amine] | ≤ 50 nM | < 300 nM | < 100 nM | < 100 nM |  |

— patent EP4813991A1 (iLeadBMS Co., Ltd., priority 2023, dated 2025)
